Measurements published in ChEMBL document CHEMBL3885881, “DrugMatrix”.

Species: Rattus norvegicus
Assay: DrugMatrix - Regimen: Daily Repeat
Format: toxicity, organism-based, Sprague-Dawley
Parameters: regimen Daily Repeat, gender Male, age 6-8 weeks
Conditions: in vivo, po, route oral GAVAGE, vehicle .5 % CMC; for ABSOLUTE BASOPHIL / ABSOLUTE EOSINOPHIL / ABSOLUTE LYMPHOCYTE / ABSOLUTE MONOCYTE / ABSOLUTE SEGMENTED NEUTROPHIL / BASOPHIL / EOSINOPHIL / ERYTHROCYTE COUNT / HEMATOCRIT / HEMOGLOBIN / LEUKOCYTE COUNT / LYMPHOCYTE / MEAN CORPUSCULAR HEMOGLOBIN / MEAN CORPUSCULAR HEMOGLOBIN CONCENTRATION / MEAN CORPUSCULAR VOLUME / MONOCYTE / NEUTROPHIL / NUCLEATED RED BLOOD CELLS / PLATELET COUNT: tissue Blood; for ALANINE AMINOTRANSFERASE / ALBUMIN / ALKALINE PHOSPHATASE / ASPARTATE AMINOTRANSFERASE / BLOOD UREA NITROGEN / CARBON DIOXIDE / CHLORIDE / CHOLESTEROL / CREATINE PHOSPHOKINASE / CREATININE / GLUCOSE / LACTATE DEHYDROGENASE / LIPASE / PHOSPHORUS / POTASSIUM / SODIUM / TOTAL BILIRUBIN / TOTAL PROTEIN / URIC ACID: tissue Plasma
[1] = 0 mg/kg, 72 h, dose level Control, time 3 day
[2] = 0 mg/kg, 120 h, dose level Control, time 5 day
[3] = 30 mg/kg, 72 h, dose level Low, time 3 day
[4] = 30 mg/kg, 120 h, dose level Low, time 5 day

SMILES: COc1ccc(/C=C/C(=O)Nc2ccccc2C(=O)O)cc1OC
- ABSOLUTE BASOPHIL [1]: 0 CELLS/uL
- ABSOLUTE EOSINOPHIL [1]: 222.83 CELLS/uL
- ABSOLUTE LYMPHOCYTE [1]: 14453 CELLS/uL
- ABSOLUTE MONOCYTE [1]: 0 CELLS/uL
- ABSOLUTE SEGMENTED NEUTROPHIL [1]: 1490.83 CELLS/uL
- BASOPHIL [1]: 0%
- EOSINOPHIL [1]: 1.33%
- ERYTHROCYTE COUNT [1]: 5.76 x10E6/uL
- HEMATOCRIT [1]: 36.52%
- HEMOGLOBIN [1]: 13.45 G/DL
- LEUKOCYTE COUNT [1]: 16.17 x10E3/uL
- LYMPHOCYTE [1]: 89.33%
- MEAN CORPUSCULAR HEMOGLOBIN [1]: 23.37 pg
- MEAN CORPUSCULAR HEMOGLOBIN CONCENTRATION [1]: 36.85 G/DL
- MEAN CORPUSCULAR VOLUME [1]: 63.47 fL
- MONOCYTE [1]: 0%
- NEUTROPHIL [1]: 9.33%
- NUCLEATED RED BLOOD CELLS [1]: 0 /100WBC
- PLATELET COUNT [1]: 1239.5 x10E3/uL
- ALANINE AMINOTRANSFERASE [1]: 43.83 u/L
- ALBUMIN [1]: 4.27 G/DL
- ALKALINE PHOSPHATASE [1]: 398.83 u/L
- ASPARTATE AMINOTRANSFERASE [1]: 81.17 u/L
- BLOOD UREA NITROGEN [1]: 17.67 mg/dL
- CARBON DIOXIDE [1]: 27.5 mmol/L
- CHLORIDE [1]: 99.17 MEQ/L
- CHOLESTEROL [1]: 74 mg/dL
- CREATINE PHOSPHOKINASE [1]: 331.5 u/L
- CREATININE [1]: 0.2 mg/dL
- GLUCOSE [1]: 171.33 mg/dL
- LACTATE DEHYDROGENASE [1]: 241.67 u/L
- LIPASE [1]: 9.5 u/L
- PHOSPHORUS [1]: 12.25 mg/dL
- POTASSIUM [1]: 6.33 MEQ/L
- SODIUM [1]: 141.28 MEQ/L
- TOTAL BILIRUBIN [1]: 0.15 mg/dL
- TOTAL PROTEIN [1]: 5.98 G/DL
- URIC ACID [1]: 1.63 mg/dL
- ABSOLUTE BASOPHIL [2]: 0 CELLS/uL
- ABSOLUTE EOSINOPHIL [2]: 148.67 CELLS/uL
- ABSOLUTE LYMPHOCYTE [2]: 16020.5 CELLS/uL
- ABSOLUTE MONOCYTE [2]: 29.17 CELLS/uL
- ABSOLUTE SEGMENTED NEUTROPHIL [2]: 1468.33 CELLS/uL
- BASOPHIL [2]: 0%
- EOSINOPHIL [2]: 1%
- ERYTHROCYTE COUNT [2]: 5.78 x10E6/uL
- HEMATOCRIT [2]: 35.77%
- HEMOGLOBIN [2]: 13.4 G/DL
- LEUKOCYTE COUNT [2]: 17.67 x10E3/uL
- LYMPHOCYTE [2]: 90.5%
- MEAN CORPUSCULAR HEMOGLOBIN [2]: 23.22 pg
- MEAN CORPUSCULAR HEMOGLOBIN CONCENTRATION [2]: 37.47 G/DL
- MEAN CORPUSCULAR VOLUME [2]: 61.92 fL
- MONOCYTE [2]: 0.17%
- NEUTROPHIL [2]: 8.33%
- NUCLEATED RED BLOOD CELLS [2]: 0.17 /100WBC
- PLATELET COUNT [2]: 1255.5 x10E3/uL
- ALANINE AMINOTRANSFERASE [2]: 46.5 u/L
- ALBUMIN [2]: 4.38 G/DL
- ALKALINE PHOSPHATASE [2]: 336 u/L
- ASPARTATE AMINOTRANSFERASE [2]: 76.5 u/L
- BLOOD UREA NITROGEN [2]: 20 mg/dL
- CARBON DIOXIDE [2]: 27.5 mmol/L
- CHLORIDE [2]: 101 MEQ/L
- CHOLESTEROL [2]: 71.33 mg/dL
- CREATINE PHOSPHOKINASE [2]: 231.83 u/L
- CREATININE [2]: 0.37 mg/dL
- GLUCOSE [2]: 168.83 mg/dL
- LACTATE DEHYDROGENASE [2]: 174 u/L
- LIPASE [2]: 8.67 u/L
- PHOSPHORUS [2]: 11.48 mg/dL
- POTASSIUM [2]: 6.82 MEQ/L
- SODIUM [2]: 143.8 MEQ/L
- TOTAL BILIRUBIN [2]: 0.2 mg/dL
- TOTAL PROTEIN [2]: 5.98 G/DL
- URIC ACID [2]: 1.83 mg/dL
- ABSOLUTE BASOPHIL [3]: 0 CELLS/uL
- ABSOLUTE EOSINOPHIL [3]: 217.33 CELLS/uL
- ABSOLUTE LYMPHOCYTE [3]: 12060 CELLS/uL
- ABSOLUTE MONOCYTE [3]: 0 CELLS/uL
- ABSOLUTE SEGMENTED NEUTROPHIL [3]: 1122.67 CELLS/uL
- BASOPHIL [3]: 0%
- EOSINOPHIL [3]: 1.67%
- ERYTHROCYTE COUNT [3]: 5.52 x10E6/uL
- HEMATOCRIT [3]: 34.6%
- HEMOGLOBIN [3]: 13.1 G/DL
- LEUKOCYTE COUNT [3]: 13.4 x10E3/uL
- LYMPHOCYTE [3]: 90%
- MEAN CORPUSCULAR HEMOGLOBIN [3]: 23.77 pg
- MEAN CORPUSCULAR HEMOGLOBIN CONCENTRATION [3]: 37.9 G/DL
- MEAN CORPUSCULAR VOLUME [3]: 62.73 fL
- MONOCYTE [3]: 0%
- NEUTROPHIL [3]: 8.33%
- NUCLEATED RED BLOOD CELLS [3]: 0 /100WBC
- PLATELET COUNT [3]: 1155.33 x10E3/uL
- ALANINE AMINOTRANSFERASE [3]: 48.67 u/L
- ALBUMIN [3]: 4.13 G/DL
- ALKALINE PHOSPHATASE [3]: 344.33 u/L
- ASPARTATE AMINOTRANSFERASE [3]: 77 u/L
- BLOOD UREA NITROGEN [3]: 14.67 mg/dL
- CARBON DIOXIDE [3]: 23.67 mmol/L
- CHLORIDE [3]: 103.67 MEQ/L
- CHOLESTEROL [3]: 71 mg/dL
- CREATINE PHOSPHOKINASE [3]: 180 u/L
- CREATININE [3]: 0.19 mg/dL
- GLUCOSE [3]: 159.67 mg/dL
- LACTATE DEHYDROGENASE [3]: 96.67 u/L
- LIPASE [3]: 8 u/L
- PHOSPHORUS [3]: 12.47 mg/dL
- POTASSIUM [3]: 5.88 MEQ/L
- SODIUM [3]: 144.63 MEQ/L
- TOTAL BILIRUBIN [3]: 0.17 mg/dL
- TOTAL PROTEIN [3]: 5.67 G/DL
- URIC ACID [3]: 1.47 mg/dL
- ABSOLUTE BASOPHIL [4]: 0 CELLS/uL
- ABSOLUTE EOSINOPHIL [4]: 278.67 CELLS/uL
- ABSOLUTE LYMPHOCYTE [4]: 14764.67 CELLS/uL
- ABSOLUTE MONOCYTE [4]: 0 CELLS/uL
- ABSOLUTE SEGMENTED NEUTROPHIL [4]: 1590 CELLS/uL
- BASOPHIL [4]: 0%
- EOSINOPHIL [4]: 1.67%
- ERYTHROCYTE COUNT [4]: 5.36 x10E6/uL
- HEMATOCRIT [4]: 34.2%
- HEMOGLOBIN [4]: 13.03 G/DL
- LEUKOCYTE COUNT [4]: 16.63 x10E3/uL
- LYMPHOCYTE [4]: 88.67%
- MEAN CORPUSCULAR HEMOGLOBIN [4]: 24.4 pg
- MEAN CORPUSCULAR HEMOGLOBIN CONCENTRATION [4]: 38.1 G/DL
- MEAN CORPUSCULAR VOLUME [4]: 63.97 fL
- MONOCYTE [4]: 0%
- NEUTROPHIL [4]: 9.67%
- NUCLEATED RED BLOOD CELLS [4]: 0.33 /100WBC
- PLATELET COUNT [4]: 1260.33 x10E3/uL
- ALANINE AMINOTRANSFERASE [4]: 59 u/L
- ALBUMIN [4]: 4.5 G/DL
- ALKALINE PHOSPHATASE [4]: 404 u/L
- ASPARTATE AMINOTRANSFERASE [4]: 84.33 u/L
- BLOOD UREA NITROGEN [4]: 18.33 mg/dL
- CARBON DIOXIDE [4]: 25.33 mmol/L
- CHLORIDE [4]: 103 MEQ/L
- CHOLESTEROL [4]: 75.67 mg/dL
- CREATINE PHOSPHOKINASE [4]: 221 u/L
- CREATININE [4]: 0.18 mg/dL
- GLUCOSE [4]: 161.67 mg/dL
- LACTATE DEHYDROGENASE [4]: 269 u/L
- LIPASE [4]: 9 u/L
- PHOSPHORUS [4]: 12.57 mg/dL
- POTASSIUM [4]: 6.47 MEQ/L
- SODIUM [4]: 145.07 MEQ/L
- TOTAL BILIRUBIN [4]: 0.1 mg/dL
- TOTAL PROTEIN [4]: 6.03 G/DL
- URIC ACID [4]: 1.6 mg/dL
